Converted amounts (≈) assume the structure as drawn. Where two headings read alike, the source gives them in different places.
Experiments:
[1] = test system: neutrophils; assay: In vitro intracellular killing, nitro blue tetrazolium (NBT) reduction assay; assay type: cell-based
Method: One of the broad methods used for determining immune disorders for patients in hospitals is the NBT test to measure their immune responses. The reduction in NBT dye provides information about the phagocytic and intracellular killing functions of neutrophils, which are important for microbiocidal activity. The most promising derivatives (2a, 2b, 2d, 3a, 8, and 11) were evaluated against in vitro intracellular killing activities using a nitro blue tetrazolium (NBT) reduction assay and the obtained results expressed in percentage (%): increasing the percentage led to an improvement in the killing ability of the neutrophils used as innate immunity.
In vitro intracellular killing activities for the most promising six derivatives 2a, 2b, 2d, 3a, 8, and 11 were performed according to reported methods.

[2] = test system: S. aureus ATCC 29213; assay: MIC and MBC determination; assay type: cell-based; settings: S. aureus

## COc1ccc(/C=C(\C#N)C(=O)Nc2ccc(S(=O)(=O)NC(=N)N)cc2)cc1O [Compound 2d, N-(4-(N-Carbamimidoylsulfamoyl)phenyl)-2-cyano-3-(3-hydroxy-4-methoxyphenyl) acryl-amide]
[1]
  Intracellular Killing Activity: 142.4 ± 0.98%
[2]
  MBC: 13.40 ± 0.54 µM (≈ 5.57 µg/mL)
  MIC: 13.40 ± 0.98 µM (≈ 5.57 µg/mL)
[2]; Staphylococcus aureus, ATCC29213, read-out: MBC
  MBC: 13.4 µM (≈ 5.57 µg/mL)
[2]; Staphylococcus aureus, ATCC29213, read-out: MIC
  MIC: 13.4 µM (≈ 5.57 µg/mL)

From article PMC7915026, “Sulfaguanidine Hybrid with Some New Pyridine-2-One Derivatives: Design, Synthesis, and Antimicrobial Activity against Multidrug-Resistant Bacteria as Dual DNA Gyrase and DHFR Inhibitors” (Antibiotics, 2021)
